Molecules are shown by their SMILES. A value given as a limit tells only on which side of the number the result lay.

For experiment [1], the system named is MT4. Kind of experiment: Cytotoxic concentration of compound required to reduce the viability of mock infected MT-4 cells on the MTT assay in test I. Format: functional. Conditions: Homo sapiens. A general note: Formazan colour is commonly taken as a measure of viable cells.
The test system of experiment [2] is PBMC (Homo sapiens). Nature of the experiment: Cytotoxic concentration of compound determined by the […] exclusion staining method in PBMC by test II.
Experiment [3] in a line: Selectivity index determined for CC50 (test I) to EC50 x 10e3. Format: functional.

As usually defined, the CC50 is the concentration at which the toxic effect on the cells reaches its halfway point. Regarding `NCCCC[C@@H]1NC(=O)[C@H](CCCNC(N)=O)NC(=O)[C@H](Cc2ccc(O)cc2)NC(=O)[C@@H](NC(=O)[C@@H](NC(=O)[C@H](CCCN=C(N)N)NC(=O)[C@@H](N)CCCN=C(N)N)c2ccc3ccccc3c2)CSSC[C@@H](C(=O)N[C@@H](CCCN=C(N)N)C(N)=O)NC(=O)[C@H](CCCNC(N)=O)NC(=O)[C@H](CCCN=C(N)N)NC(=O)[C@H](Cc2ccc(O)cc2)NC(=O)[C@@H]2CCCN2C(=O)[C@@H](CCCNC(N)=O)NC1=O`, the CC50 was > 100 µM in experiment [1] and > 800 µM in experiment [2]. The corresponding values for `NCCCC[C@@H]1NC(=O)[C@H](CCCNC(N)=O)NC(=O)[C@H](Cc2ccc(O)cc2)NC(=O)[C@@H](NC(=O)[C@@H](NC(=O)[C@H](CCCN=C(N)N)NC(=O)[C@@H](N)CCCN=C(N)N)c2ccc3ccccc3c2)CSSC[C@@H](C(=O)N[C@@H](CCCN=C(N)N)C(N)=O)NC(=O)[C@H](CCCNC(N)=O)NC(=O)[C@H](CCCNC(N)=O)NC(=O)[C@H](Cc2ccc(O)cc2)NC(=O)[C@@H]2CCCN2C(=O)[C@@H](CCCCN)NC1=O` are > 100 µM and > 400 µM. As for `Nc1ccn([C@H]2CC[C@@H](CO)O2)c(=O)n1` [ZALCITABINE], the CC50 in experiment [1] is 14 µM. The compound also showed an SI in experiment [3] of 0.16. Regarding `NCCCC[C@@H]1NC(=O)[C@H](CCCN=C(N)N)NC(=O)[C@H](Cc2ccc(O)cc2)NC(=O)[C@@H](NC(=O)[C@@H](NC(=O)[C@H](CCCN=C(N)N)NC(=O)[C@@H](N)CCCN=C(N)N)c2ccc3ccccc3c2)CSSC[C@@H](C(=O)N[C@@H](CCCN=C(N)N)C(=O)O)NC(=O)[C@H](CCCNC(N)=O)NC(=O)[C@H](CCCN=C(N)N)NC(=O)[C@H](Cc2ccc(O)cc2)NC(=O)[C@@H]2CCCN2C(=O)[C@@H](CCCNC(N)=O)NC1=O`, the values for the CC50 in experiment [1] and in experiment [2] were > 80 µM and 110 µM, respectively. The matching figures for `NCCCC[C@@H]1NC(=O)[C@H](CCCNC(N)=O)NC(=O)[C@H](Cc2ccc(O)cc2)NC(=O)[C@@H](NC(=O)[C@@H](NC(=O)[C@H](CCCN=C(N)N)NC(=O)[C@@H](N)CCCNC(N)=O)c2ccc3ccccc3c2)CSSC[C@@H](C(=O)N[C@@H](CCCN=C(N)N)C(N)=O)NC(=O)[C@H](CCCNC(N)=O)NC(=O)[C@H](CCCN=C(N)N)NC(=O)[C@H](Cc2ccc(O)cc2)NC(=O)[C@@H]2CCCN2C(=O)[C@@H](CCCCN)NC1=O`: > 100 µM and 350 µM. The corresponding values for `NCCCC[C@@H]1NC(=O)[C@H](CCCN=C(N)N)NC(=O)[C@H](Cc2ccc(O)cc2)NC(=O)[C@@H](NC(=O)[C@@H](NC(=O)[C@H](CCCN=C(N)N)NC(=O)[C@@H](N)CCCNC(N)=O)c2ccc3ccccc3c2)CSSC[C@@H](C(=O)N[C@@H](CCCN=C(N)N)C(N)=O)NC(=O)[C@H](CCCNC(N)=O)NC(=O)[C@H](CCCNC(N)=O)NC(=O)[C@H](Cc2ccc(O)cc2)NC(=O)[C@@H]2CCCN2C(=O)[C@@H](CCCCN)NC1=O` are > 100 µM and 470 µM. The matching figures for `NCCCC[C@@H]1NC(=O)[C@H](CCCN=C(N)N)NC(=O)[C@H](Cc2ccc(O)cc2)NC(=O)[C@@H](NC(=O)[C@@H](NC(=O)[C@H](CCCN=C(N)N)NC(=O)[C@@H](N)CCCNC(N)=O)c2ccc3ccccc3c2)CSSC[C@@H](C(=O)N[C@@H](CCCN=C(N)N)C(N)=O)NC(=O)[C@H](CCCNC(N)=O)NC(=O)[C@H](CCCN=C(N)N)NC(=O)[C@H](Cc2ccc(O)cc2)NC(=O)[C@@H]2CCCN2C(=O)[C@@H](CCCNC(N)=O)NC1=O`: > 100 µM and 500 µM. In the case of `NCCCC[C@@H]1NC(=O)[C@H](CCCN=C(N)N)NC(=O)[C@H](Cc2ccc(O)cc2)NC(=O)[C@@H](NC(=O)[C@@H](NC(=O)[C@H](CCCN=C(N)N)NC(=O)[C@@H](N)CCCN=C(N)N)c2ccc3ccccc3c2)CSSC[C@@H](C(=O)N[C@@H](CCCN=C(N)N)C(N)=O)NC(=O)[C@H](CCCNC(N)=O)NC(=O)[C@H](CCCNC(N)=O)NC(=O)[C@H](Cc2ccc(O)cc2)NC(=O)[C@@H]2CCCN2C(=O)[C@@H](CCCNC(N)=O)NC1=O`, the CC50 in experiment [1] is > 100 µM; in experiment [2], 680 µM. The matching figures for `NCCCC[C@@H]1NC(=O)[C@H](CCCNC(N)=O)NC(=O)[C@H](Cc2ccc(O)cc2)NC(=O)[C@@H](NC(=O)[C@@H](NC(=O)[C@H](CCCN=C(N)N)NC(=O)[C@@H](N)CCCN=C(N)N)c2ccc3ccccc3c2)CSSC[C@@H](C(=O)N[C@@H](CCCN=C(N)N)C(=O)O)NC(=O)[C@H](CCCNC(N)=O)NC(=O)[C@H](CCCN=C(N)N)NC(=O)[C@H](Cc2ccc(O)cc2)NC(=O)[C@@H]2CCCN2C(=O)[C@@H](CCCNC(N)=O)NC1=O`: > 100 µM and > 800 µM. The matching figures for `NCCCC[C@@H]1NC(=O)[C@H](CCCN=C(N)N)NC(=O)[C@H](Cc2ccc(O)cc2)NC(=O)[C@@H](NC(=O)[C@@H](NC(=O)[C@H](CCCN=C(N)N)NC(=O)[C@@H](N)CCCNC(N)=O)c2ccc3ccccc3c2)CSSC[C@@H](C(=O)N[C@@H](CCCN=C(N)N)C(=O)O)NC(=O)[C@H](CCCNC(N)=O)NC(=O)[C@H](CCCNC(N)=O)NC(=O)[C@H](Cc2ccc(O)cc2)NC(=O)[C@@H]2CCCN2C(=O)[C@@H](CCCCN)NC1=O`: > 100 µM and > 800 µM. The matching figures for `NCCCC[C@@H]1NC(=O)[C@H](CCCN=C(N)N)NC(=O)[C@H](Cc2ccc(O)cc2)NC(=O)[C@@H](NC(=O)[C@@H](NC(=O)[C@H](CCCN=C(N)N)NC(=O)[C@@H](N)CCCN=C(N)N)c2ccc3ccccc3c2)CSSC[C@@H](C(=O)N[C@@H](CCCN=C(N)N)C(=O)O)NC(=O)[C@H](CCCNC(N)=O)NC(=O)[C@H](CCCNC(N)=O)NC(=O)[C@H](Cc2ccc(O)cc2)NC(=O)[C@@H]2CCCN2C(=O)[C@@H](CCCNC(N)=O)NC1=O`: > 100 µM and > 800 µM. Take `NCCCC[C@@H]1NC(=O)[C@H](CCCN=C(N)N)NC(=O)[C@H](Cc2ccc(O)cc2)NC(=O)[C@@H](NC(=O)[C@@H](NC(=O)[C@H](CCCN=C(N)N)NC(=O)[C@@H](N)CCCN=C(N)N)c2ccc3ccccc3c2)CSSC[C@@H](C(=O)N[C@@H](CCCN=C(N)N)C(N)=O)NC(=O)[C@H](CCCNC(N)=O)NC(=O)[C@H](CCCN=C(N)N)NC(=O)[C@H](Cc2ccc(O)cc2)NC(=O)[C@@H]2CCCN2C(=O)[C@@H](CCCCN)NC1=O`: in experiment [1], the CC50 was found to be 10 µM.

For `NCCCC[C@@H]1NC(=O)[C@H](CCCNC(N)=O)NC(=O)[C@H](Cc2ccc(O)cc2)NC(=O)[C@@H](NC(=O)[C@@H](NC(=O)[C@H](CCCN=C(N)N)NC(=O)[C@@H](N)CCCN=C(N)N)c2ccc3ccccc3c2)CSSC[C@@H](C(=O)N[C@@H](CCCN=C(N)N)C(=O)O)NC(=O)[C@H](CCCNC(N)=O)NC(=O)[C@H](CCCN=C(N)N)NC(=O)[C@H](Cc2ccc(O)cc2)NC(=O)[C@@H]2CCCN2C(=O)[C@@H](CCCCN)NC1=O`, the values for the 50% cytotoxic concentration (CC50) in experiment [1] and in experiment [2] were > 80 µM and 510 µM, respectively. The corresponding values for `NCCCC[C@@H]1NC(=O)[C@H](CCCN=C(N)N)NC(=O)[C@H](Cc2ccc(O)cc2)NC(=O)[C@@H](NC(=O)[C@@H](NC(=O)[C@H](CCCN=C(N)N)NC(=O)[C@@H](N)CCCNC(N)=O)c2ccc3ccccc3c2)CSSC[C@@H](C(=O)N[C@@H](CCCN=C(N)N)C(=O)O)NC(=O)[C@H](CCCNC(N)=O)NC(=O)[C@H](CCCN=C(N)N)NC(=O)[C@H](Cc2ccc(O)cc2)NC(=O)[C@@H]2CCCN2C(=O)[C@@H](CCCNC(N)=O)NC1=O` are > 100 µM and > 800 µM.

On to `NCCCC[C@@H]1NC(=O)[C@H](CCCNC(N)=O)NC(=O)[C@H](Cc2ccc(O)cc2)NC(=O)[C@@H](NC(=O)[C@@H](NC(=O)[C@H](CCCN=C(N)N)NC(=O)[C@@H](N)CCCN=C(N)N)c2ccc3ccccc3c2)CSSC[C@@H](C(=O)N[C@@H](CCCN=C(N)N)C(N)=O)NC(=O)[C@H](CCCNC(N)=O)NC(=O)[C@H](CCCN=C(N)N)NC(=O)[C@H](Cc2ccc(O)cc2)NC(=O)[C@@H]2CCCN2C(=O)[C@@H](CCCCN)NC1=O`, for which the CC50 in experiment [1] is > 100 µM; in experiment [2], 410 µM. With `NCCCC[C@@H]1NC(=O)[C@H](CCCNC(N)=O)NC(=O)[C@H](Cc2ccc(O)cc2)NC(=O)[C@@H](NC(=O)[C@@H](NC(=O)[C@H](CCCN=C(N)N)NC(=O)[C@@H](N)CCCNC(N)=O)c2ccc3ccccc3c2)CSSC[C@@H](C(=O)N[C@@H](CCCN=C(N)N)C(=O)O)NC(=O)[C@H](CCCNC(N)=O)NC(=O)[C@H](CCCN=C(N)N)NC(=O)[C@H](Cc2ccc(O)cc2)NC(=O)[C@@H]2CCCN2C(=O)[C@@H](CCCCN)NC1=O`, the CC50 in experiment [1] was > 100 µM; in experiment [2], > 800 µM. The corresponding values for `NCCCC[C@@H]1NC(=O)[C@H](CCCN=C(N)N)NC(=O)[C@H](Cc2ccc(O)cc2)NC(=O)[C@@H](NC(=O)[C@@H](NC(=O)[C@H](CCCN=C(N)N)NC(=O)[C@@H](N)CCCN=C(N)N)c2ccc3ccccc3c2)CSSC[C@@H](C(=O)N[C@@H](CCCN=C(N)N)C(N)=O)NC(=O)[C@H](CCCNC(N)=O)NC(=O)[C@H](CCCN=C(N)N)NC(=O)[C@H](Cc2ccc(O)cc2)NC(=O)[C@@H]2CCCN2C(=O)[C@@H](CCCNC(N)=O)NC1=O` are > 100 µM and 98 µM. Compound `NCCCC[C@@H]1NC(=O)[C@@H](CCCCN)NC(=O)[C@H](CCCN=C(N)N)NC(=O)[C@@H](Cc2ccc(O)cc2)NC(=O)[C@H](NC(=O)[C@@H](NC(=O)[C@H](CCCN=C(N)N)NC(=O)[C@@H](N)CCCN=C(N)N)c2ccc3ccccc3c2)CSSC[C@H](C(=O)N[C@@H](CCCN=C(N)N)C(N)=O)NC(=O)[C@H](CCCNC(N)=O)NC(=O)[C@H](CCCN=C(N)N)NC(=O)[C@H](Cc2ccc(O)cc2)NC(=O)[C@H]2CCCN2C1=O` came in with an SI in experiment [3] of 0.14. For the compound `NCCCC[C@@H]1NC(=O)[C@H](CCCNC(N)=O)NC(=O)[C@H](Cc2ccc(O)cc2)NC(=O)[C@@H](NC(=O)[C@@H](NC(=O)[C@H](CCCN=C(N)N)NC(=O)[C@@H](N)CCCN=C(N)N)c2ccc3ccccc3c2)CSSC[C@@H](C(=O)N[C@@H](CCCN=C(N)N)C(=O)O)NC(=O)[C@H](CCCNC(N)=O)NC(=O)[C@H](CCCNC(N)=O)NC(=O)[C@H](Cc2ccc(O)cc2)NC(=O)[C@@H]2CCCN2C(=O)[C@@H](CCCCN)NC1=O`, the CC50 in experiment [1] is > 100 µM; in experiment [2] it was > 800 µM.

Values taken from ChEMBL document CHEMBL1134146, “Development of specific CXCR4 inhibitors possessing high selectivity indexes as well as complete stability in serum based on an anti-HIV peptide T140” (Bioorg Med Chem Lett, 2001).
